Experimental data reported in patent US20260285846A1, “REV-ERB AGONISTS FOR TH17-MEDIATED INFLAMMATORY DISORDERS” (UNIVERSITY OF FLORID RESEARCH FOUNDATION, iNCORPORATED, priority 2021, published 2026).

Molecular target: REV-ERBα LBD (Homo sapiens, UniProt P20393, DEL324-422)
Assay: biochemical
Settings: FRET assay; 6xHistag-REV-ERBα LBD with FITC-labeled SMRT corepressor peptide; read-out: REVERBα (Agonism of REV-ERBα, EC50)
Procedure, shortened: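 Serially diluted ligands were incubated 2 h at 4° C, in triplicate, with E. coli-expressed His-REV-ERBα LBD (281-614 Δ324-422 or 381-579; 4 nM), Tb-anti-His (1 nM) and FITC-labelled SMRT peptide (400 nM). EC50 came from sigmoidal fits of the 520/495 nm TR-FRET ratio.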

REV-ERBα LBD, sequence (P20393 with tags, fused parts or gaps DEL324-422): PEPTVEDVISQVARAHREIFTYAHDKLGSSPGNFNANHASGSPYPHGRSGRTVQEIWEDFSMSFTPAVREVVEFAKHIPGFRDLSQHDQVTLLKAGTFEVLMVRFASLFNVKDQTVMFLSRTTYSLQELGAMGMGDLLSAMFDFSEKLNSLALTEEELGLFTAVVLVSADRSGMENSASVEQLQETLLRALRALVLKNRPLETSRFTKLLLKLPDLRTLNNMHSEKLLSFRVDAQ
REV-ERBα LBD, sequence (Q9Y618 2335-2356 partner limits assumed): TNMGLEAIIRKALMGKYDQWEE

Row | EC50 [nM] | Compound
1 | < 100 | CC(C)(C)Cn1cc([C@H](NS(=O)(=O)C2CC2)C(F)F)c2cc(F)c(-c3ncc(F)cc3F)cc21 [Compound 91, (S)—N-(1-(6-(3,5-difluoropyridin-2-yl)-5-fluoro-1-neopentyl-1H-indol-3-yl)-2,2-difluoroethyl)cyclopropanesulfonamide]
2 | < 100 | Cc1ncc(F)cc1-c1cc2c(cc1F)c([C@H](NS(=O)(=O)C1CC1)C(F)F)cn2CC(C)(C)C [Compound 95, (S)—N-(2,2-difluoro-1-(5-fluoro-6-(5-fluoro-2-methylpyridin-3-yl)-1-neopentyl-1H-indol-3-yl)ethyl)cyclopropanesulfonamide]
3 | < 100 | CC(C)(C)Cn1cc([C@H](NS(=O)(=O)C2CC2)C(F)F)c2cc(F)c(-c3cccnc3C(F)F)cc21 [Compound 97, (S)—N-(1-(6-(2-(difluoromethyl)pyridin-3-yl)-5-fluoro-1-neopentyl-1H-indol-3-yl)-2,2-difluoroethyl)cyclopropanesulfonamide]
4 | < 100 | CC(C)(C)Cn1cc([C@H](NS(=O)(=O)C2CC2)C(F)F)c2cc(F)c(-c3c(C#N)cccc3C(F)F)cc21 [Compound 109, N-((1S)-1-(6-(2-cyano-6-(difluoromethyl)phenyl)-5-fluoro-1-neopentyl-1H-indol-3-yl)-2,2-difluoroethyl)cyclopropanesulfonamide]
5 | < 100 | CC(C)(C)Cn1cc([C@H](NS(=O)(=O)C2CC2)C(F)F)c2cc(F)c(-c3ncccc3C(F)F)cc21 [Compound 111, (S)—N-(1-(6-(3-(difluoromethyl)pyridin-2-yl)-5-fluoro-1-neopentyl-1H-indol-3-yl)-2,2-difluoroethyl)cyclopropanesulfonamide]
6 | < 100 | CC(C)(C)Cn1cc([C@H](NS(=O)(=O)C2CC2)C(F)F)c2cc(F)c(-c3cnccc3C(F)(F)F)cc21 [Compound 113, (S)—N-(2,2-difluoro-1-(5-fluoro-1-neopentyl-6-(4-(trifluoromethyl)pyridin-3-yl)-1H-indol-3-yl)ethyl)cyclopropanesulfonamide]
7 | < 100 | CC(C)(C)Cn1cc([C@H](NS(=O)(=O)C2CC2)C(F)F)c2cc(F)c(-c3ccncc3C(F)(F)F)cc21 [Compound 114, (S)—N-(2,2-difluoro-1-(5-fluoro-1-neopentyl-6-(3-(trifluoromethyl)pyridin-4-yl)-1H-indol-3-yl)ethyl)cyclopropanesulfonamide]
8 | < 100 | CC(C)(C)Cn1cc([C@H](NS(=O)(=O)C2CC2)C(F)F)c2cc(F)c(-c3ncccc3C3CC3)cc21 [Compound 115, (S)—N-(1-(6-(3-cyclopropylpyridin-2-yl)-5-fluoro-1-neopentyl-1H-indol-3-yl)-2,2-difluoroethyl)cyclopropanesulfonamide]
9 | < 100 | CC(C)(C)Cn1cc([C@H](NS(=O)(=O)C2CC2)C(F)F)c2cc(F)c(-c3c(F)cccc3C(F)F)cc21 [Compound 116, N-((1S)-1-(6-(2-(difluoromethyl)-6-fluorophenyl)-5-fluoro-1-neopentyl-1H-indol-3-yl)-2,2-difluoroethyl)cyclopropanesulfonamide]
10 | < 100 | CC(C)(C)Cn1cc([C@H](NS(=O)(=O)C2CC2)C(F)F)c2cc(F)c(-c3ccc(F)cc3C(F)F)cc21 [Compound 117, (S)—N-(1-(6-(2-(difluoromethyl)-4-fluorophenyl)-5-fluoro-1-neopentyl-1H-indol-3-yl)-2,2-difluoroethyl)cyclopropanesulfonamide]
11 | < 100 | CC(C)(C)Cn1cc([C@H](NS(=O)(=O)C2CC2)C(F)F)c2ccc(-c3cc(F)cnc3C(F)F)cc21 [Compound 119, (S)—N-(1-(6-(2-(difluoromethyl)-5-fluoropyridin-3-yl)-1-neopentyl-1H-indol-3-yl)-2,2-difluoroethyl)cyclopropanesulfonamide]

The remaining lines, values behind:

Row | Compound | EC50 [nM]
12 | CC(C)(C)Cn1cc([C@H](NS(=O)(=O)C2CC2)C(F)F)c2cc(F)c(-c3ncc(Cl)cc3F)cc21 [Compound 92, (S)—N-(1-(6-(5-chloro-3-fluoropyridin-2-yl)-5-fluoro-1-neopentyl-1H-indol-3-yl)-2,2-difluoroethyl)cyclopropanesulfonamide] | < 100
13 | CC(C)(C)Cn1cc([C@H](NS(=O)(=O)C2CC2)C(F)F)c2cc(F)c(-c3ncc(F)cc3Cl)cc21 [Compound 93, (S)—N-(1-(6-(3-chloro-5-fluoropyridin-2-yl)-5-fluoro-1-neopentyl-1H-indol-3-yl)-2,2-difluoroethyl)cyclopropanesulfonamide] | < 100
14 | CC(C)(C)Cn1cc([C@H](NS(=O)(=O)C2CC2)C(F)F)c2cc(F)c(-c3ncc(F)cc3C#N)cc21 [Compound 94, (S)—N-(1-(6-(3-cyano-5-fluoropyridin-2-yl)-5-fluoro-1-neopentyl-1H-indol-3-yl)-2,2-difluoroethyl)cyclopropanesulfonamide] | < 100
15 | CC(C)(C)Cn1cc([C@H](NS(=O)(=O)C2CC2)C(F)F)c2cc(F)c(-c3cc(F)cnc3C#N)cc21 [Compound 96, (S)—N-(1-(6-(2-cyano-5-fluoropyridin-3-yl)-5-fluoro-1-neopentyl-1H-indol-3-yl)-2,2-difluoroethyl)cyclopropanesulfonamide] | < 100
16 | CC(C)(C)Cn1cc([C@H](NS(=O)(=O)C2CC2)C(F)F)c2cc(F)c(-c3c(C(F)(F)F)ccnc3C#N)cc21 [Compound 99, N-((1S)-1-(6-(2-cyano-4-(trifluoromethyl)pyridin-3-yl)-5-fluoro-1-neopentyl-1H-indol-3-yl)-2,2-difluoroethyl)cyclopropanesulfonamide] | < 100
17 | CC(C)(C)Cn1cc([C@H](NS(=O)(=O)C2CC2)C(F)F)c2ccc(-c3ncccc3C(F)F)cc21 [Compound 100, (S)—N-(1-(6-(3-(difluoromethyl)pyridin-2-yl)-1-neopentyl-1H-indol-3-yl)-2,2-difluoroethyl)cyclopropanesulfonamide] | < 100
18 | CC(C)(C)Cn1cc([C@H](NS(=O)(=O)C2CC2)C(F)F)c2ccc(-c3ncccc3C3CC3)cc21 [Compound 101, (S)—N-(1-(6-(3-cyclopropylpyridin-2-yl)-1-neopentyl-1H-indol-3-yl)-2,2-difluoroethyl)cyclopropanesulfonamide] | < 100
19 | CC(C)(C)Cn1cc([C@H](NS(=O)(=O)C2CC2)C(F)F)c2ccc(-c3ccncc3C(F)(F)F)cc21 [Compound 102, (S)—N-(2,2-difluoro-1-(1-neopentyl-6-(3-(trifluoromethyl)pyridin-4-yl)-1H-indol-3-yl)ethyl)cyclopropanesulfonamide] | < 100
20 | CC(C)(C)Cn1cc([C@H](NS(=O)(=O)C2CC2)C(F)F)c2ccc(-c3c(C#N)cccc3C(F)F)cc21 [Compound 103, (S)—N-(1-(6-(2-cyano-6-(difluoromethyl)phenyl)-1-neopentyl-1H-indol-3-yl)-2,2-difluoroethyl)cyclopropanesulfonamide] | < 100
21 | CC(C)(C)Cn1cc([C@H](NS(=O)(=O)C2CC2)C(F)F)c2ccc(-c3c(F)cccc3C(F)F)cc21 [Compound 104, (S)—N-(1-(6-(2-(difluoromethyl)-6-fluorophenyl)-1-neopentyl-1H-indol-3-yl)-2,2-difluoroethyl)cyclopropanesulfonamide] | < 100
22 | CC(C)(C)Cn1cc([C@H](NS(=O)(=O)C2CC2)C(F)F)c2ccc(-c3ccc(F)cc3C(F)F)cc21 [Compound 105, (S)—N-(1-(6-(2-(difluoromethyl)-4-fluorophenyl)-1-neopentyl-1H-indol-3-yl)-2,2-difluoroethyl)cyclopropanesulfonamide] | < 100
23 | CC(C)(C)Cn1cc([C@H](NS(=O)(=O)C2CC2)C(F)F)c2ccc(-c3c(C(F)(F)F)ccc[n+]3[O-])cc21 [Compound 106, (S)-2-(3-(1-(cyclopropanesulfonamido)-2,2-difluoroethyl)-1-neopentyl-1H-indol-6-yl)-3-(trifluoromethyl)pyridine 1-oxide] | 100 to 1000
24 | CC(C)(C)Cn1cc([C@H](NS(=O)(=O)C2CC2)C(F)F)c2ccc(-c3c[n+]([O-])ccc3C(F)(F)F)cc21 [Compound 107, (S)-3-(3-(1-(cyclopropanesulfonamido)-2,2-difluoroethyl)-1-neopentyl-1H-indol-6-yl)-4-(trifluoromethyl)pyridine 1-oxide] | < 100
25 | CC(C)(C)Cn1cc([C@H](NS(=O)(=O)C2CC2)C(F)F)c2cc(F)c(-c3c(C#N)cccc3C(F)(F)F)cc21 [Compound 108, N-((1S)-1-(6-(2-cyano-6-(trifluoromethyl)phenyl)-5-fluoro-1-neopentyl-1H-indol-3-yl)-2,2-difluoroethyl)cyclopropanesulfonamide] | < 100
26 | CC(C)(C)Cn1cc([C@H](NS(=O)(=O)C2CC2)C(F)F)c2cc(F)c(-c3ccc(C#N)nc3C(F)(F)F)cc21 [Compound 110, (S)—N-(1-(6-(6-cyano-2-(trifluoromethyl)pyridin-3-yl)-5-fluoro-1-neopentyl-1H-indol-3-yl)-2,2-difluoroethyl)cyclopropanesulfonamide] | < 100
27 | CC(C)(C)Cn1cc([C@H](NS(=O)(=O)C2CC2)C(F)F)c2cc(F)c(-c3cncnc3C(F)(F)F)cc21 [Compound 112, (S)—N-(2,2-difluoro-1-(5-fluoro-1-neopentyl-6-(4-(trifluoromethyl)pyrimidin-5-yl)-1H-indol-3-yl)ethyl)cyclopropanesulfonamide] | < 100
28 | CC(C)(C)Cn1cc([C@H](NS(=O)(=O)C2CC2)C(F)F)c2ccc(-c3c(C(F)F)ccnc3C#N)cc21 [Compound 118, (S)—N-(1-(6-(2-cyano-4-(difluoromethyl)pyridin-3-yl)-1-neopentyl-1H-indol-3-yl)-2,2-difluoroethyl)cyclopropanesulfonamide] | < 100
29 | Cc1ncnc(C(F)F)c1-c1ccc2c([C@H](NS(=O)(=O)C3CC3)C(F)F)cn(CC(C)(C)C)c2c1 [Compound 120, (S)—N-(1-(6-(4-(difluoromethyl)-6-methylpyrimidin-5-yl)-1-neopentyl-1H-indol-3-yl)-2,2-difluoroethyl)cyclopropanesulfonamide] | < 100
